Assay results taken from ChEMBL document CHEMBL4613259, “Biosynthesis of Amino Acid Derived α-Pyrones by an NRPS-NRPKS Hybrid Megasynthetase in Fungi” (J Nat Prod, 2020).
≈ marks a conversion by molar mass, not a printed value. Calls of active or inactive are those of the source. The rule behind the calls is not given here.

Tested on: T47D
Experiment: Growth inhibition of human T47D cells
Format: functional, cell-based

SMILES | IC50 [µg/mL]
COc1cc([C@H](Cc2ccccc2)NC(C)=O)oc(=O)c1 | 9.2 (≈ 32 µM)

Tested on: Candida albicans
Experiment: Antifungal activity against Candida albicans SC5314 up to 100 ug/ml after 48 hrs by microdilution assay
Format: functional, organism-based

SMILES | Activity
COc1cc([C@H](Cc2ccccc2Cl)NC(C)=O)oc(=O)c1 | inactive
COc1cc([C@H](Cc2cccc(Cl)c2)NC(C)=O)oc(=O)c1 | inactive
COc1cc([C@H](Cc2ccc(Cl)cc2)NC(C)=O)oc(=O)c1 | inactive
COc1cc([C@H](Cc2ccccc2)NC(C)=O)oc(=O)c1 | inactive
COc1cc([C@H](Cc2ccc(Br)cc2)NC(C)=O)oc(=O)c1 | inactive
COc1cc([C@H](Cc2ccc(F)cc2)NC(C)=O)oc(=O)c1 | inactive
COc1cc([C@H](Cc2ccc(C)cc2)NC(C)=O)oc(=O)c1 | inactive

Tested on: Aspergillus nidulans
Experiment: Growth inhibition of Aspergillus nidulans at 0 to 300 ug/ml incubated for 4 days
Format: functional, organism-based

SMILES | growth inhibition (GI)
N[C@@H](Cc1ccccc1)c1cc(O)cc(=O)o1 | Active
